From patent publication US9127079B2, “Inhibitors of phosphatase and tensin homolog (PTEN) conjugates” (THE UNIVERSITY OF BRITISH COLUMBIA, priority 2009, dated 2015) come the findings set out here.

Assay [1] can be described thus: Infarct volume by MRI after cerebral ischemia (MCA/CCA ligation). The format is in vivo, rat. Conditions: for infarct volume assessed by MRI: seven days after cerebral ischemia; for Mean (infarct volume): given 6 hours after ischemia onset, n=8. How it is done:
Adult male Sprague-Dawley rats (weight 200 g) were used in this study. All surgical procedures were performed using sterile/aseptic techniques in accordance with Institutional guidelines. Rats were anesthetized with chloral hydrate (0.4 g/kg IP) and subjected to cerebral ischemia. Ligation of the right middle cerebral artery (MCA) and bilateral common carotids arteries (CCAs) was performed by methods described previously (Shyu et al. 2005). The CCAs were clamped with non-traumatic arterial clips. The right MCA was ligated with a 10-0 nylone suture. After 90 min of ischemia, the suture on the MCA and the arterial clips on the CCAs were removed to allow reperfusion. Core body temperature was monitored with a thermistor probe (Hewlett-Packard™ Model 21090A probe, Hewlett-Packard Company™, Andover, Mass.), and maintained at 37° C. with a heating pad during anesthesia. After recovery from anesthesia, rat body temperature was maintained at 37° C. with a heat lamp. […]
MRI was performed on rats under anesthesia in an imaging system (R4, GE™) at 3.0 T. Brains were scanned in 6 to 8 coronal image slices, each 2 mm thick without any gaps. T2-weighted imaging (T2WI) pulse sequences were obtained with the use of a spin-echo technique (repetition time, 4000 ms; echo time, 105 ms) and were captured sequentially for each animal at day 7 after cerebral ischemia. To measure the infarction area in the right cortex, we subtracted the noninfarcted area in the right cortex from the total cortical area of the left hemisphere (Shyu et al. 2004). The area of infarct was drawn manually from slice to slice, and the volume was then calculated by internal volume analysis software (Voxtool™, General Electric™).

For the next assay, the system named is PTEN. The experiment in a line: Immunostaining of endogenous PTEN: nuclear translocation in cultured neurons with NMDA. The format is cell-based, rat. The conditions noted are these: peptide 10 uM, NMDA stimulation. How it is done: Dissociated cultures of rat cortical or hippocampal neurons were prepared from 18-d-old Sprague Dawley rat embryos as described previously (Mielke and Wang 2005). To obtain mixed cultures enriched with neurons, uridine (10 μM) and 5-Fluor-T-deoxyuridine (10 μM) were added to the culture medium at 3 d in vitro (DIV) and maintained for 48 h to inhibit non-neuronal cell proliferation before the cultures were returned to the normal culture medium. Mature neurons (12-14 DIV) were used for experiments.
In order to induce excitotoxicity, 12-14 DIV cultured neurons were washed and transferred to Mg2+-free extracellular solution (ECS) containing the following (in mM): 25 HEPES acid, 140 NaCl, 33 glucose, 5.4 KCl, and 1.3 CaCl2, with pH 7.35 and osmolarity 320-330 mOsm. ECS and subjected to NMDA-induced excitotoxicity (20 μM NMDA, 10 μM glycine, 60 min at room temperature) or any other experimental conditions as indicated in the texts. Cells were then washed twice with normal ECS, and returned to the original growth conditions until additional assay.

For “KEIVSRNKRRYQED-YGRKKRRQRRR (KEIVSRNKRRYQEDYGRKKRRQRRR; PTEN K13 interference peptide conjugated to TAT protein transduction domain) [Peptide-K13]”, the “decrease in infarct volume as compared to the control” value in assay [1] (1.0 mg/kg intravenous) and in assay [1] (10 mg/kg intravenous) was “greater than 50%” in each case. In addition, the “infarct volume assessed by MRI” value in assay [1] (i.v. 8.4 mg/kg given 2 hours after ischemia onset) and in assay [1] (i.v. 8.4 mg/kg given 6 hours after ischemia onset) was “significantly reduced” throughout. Also, the “Mean (infarct volume)” value in assay [1] (intravenous 0.1 mg/kg) turned out to be 160.900; in assay [1] (intravenous 1.0 mg/kg), 72.850; in assay [1] (intravenous 10 mg/kg), 63.700. Moreover, the “PTEN nuclear translocation (endogenous PTEN immunostaining)” value with PTEN is listed as “prevented PTEN nuclear translocation”.
